This is an account of results in US7759321B2, “Compounds for the treatment of pain” (Cambridge Biotechnology Ltd, priority 2003, dated 2010).

As a reminder, the EC50 is the concentration needed to bring the measured effect to its halfway point.

Data set [1] in a line: Plasma concentration over time after administration. It is filed as in vivo, rat. On the procedure: It can be seen that the plasma concentration remains above 2% of the EC50 value for more than 3 hours.
Data set [2] deals with carrageenan (CGN) induced thermal hyperalgesia. Description: Carrageenan induced thermal hyperalgesia (CITH). It counts as in vivo. Conditions: 0.624 mg/kg p.o. On the procedure:
Carrageenan (2%, 10 microlitres) was administered into the right hind paw. A heat source was placed close to the treated and untreated hind paws, and the difference in the paw withdrawal latencies is shown. Spongosine was administered at the same time as carrageenan.

A further data set deals with adenosine receptors (Rattus norvegicus, UniProt P30543). Nature of the data set: EC50 at adenosine receptors measured at pH 7.4. It counts as biochemical.
A further data set has as its system rats. The conditions noted are these: cited from earlier work.
The test system of data set [3] is static allodynia in a model of neuropathic pain. Nature of the data set: Static allodynia in a model of neuropathic pain (paw withdrawal threshold). It is filed as in vivo. On the procedure:
Spongosine and gabapentin were administered (p.o.) in different proportions as indicated in the drawing. The total dose administered is shown on the horizontal axis, and the paw withdrawal threshold (PWT) on the vertical axis. The predicted anti-hyperalgesic effect (derived from the dose response curves obtained with each agent alone) if the effects of the two compounds are additive is shown (●). The observed effects are indicated by (▪).

Another data set relates to normal rats. Description: Blood pressure and heart rate by implantable radiotelemetry. The conditions noted are these: 0.624 mg/kg p.o. It is filed as in vivo, rat. An excerpt: An implantable radiotelemetry device was placed in the abdominal cavity of 6 rats per group. The pressure catheter of the device was inserted in the abdominal aorta and two electrodes tunnelised under the skin in a lead II position (left side of abdominal cavity/right shoulder). Individual rats were placed in their own cage on a radioreceptor (DSI) for data acquisition. A: blood pressure; B: heart rate.

The test system of data set [4] is chronic constriction injury of the rat sciatic nerve. Description: Chronic constriction injury model of neuropathic pain, thermal hyperalgesia. It is filed as in vivo. Conditions: 0.624 mg/kg p.o. The source says:
After approximately two weeks the rats developed thermal hyperalgesia in the operated leg as judged by the difference in paw withdrawal latencies of the right and left paws.

The next data set deals with rat A2A receptor (Rattus norvegicus, UniProt P30543). The conditions noted are these: read-out: EC50 for stimulation of the rat A2A receptor; cited from earlier work.
Data set [5] relates to normal physiological nociception. Nature of the data set: Normal physiological nociception after administration. It is filed as in vivo. An excerpt: Compounds of formula (I) are believed to be effective in inhibiting pain perception in mammals suffering from pain, in particular neuropathic and inflammatory pain, even when administered at doses expected to give plasma concentrations well below those known to activate adenosine receptors. […] Therefore, compounds of formula (I) can treat pain (particularly neuropathic and inflammatory pain) without causing the significant side effects associated with administration of other adenosine receptor agonists, and also without reducing normal sensory perception.

SMILES strings stand for the structures.

adenosine receptors, sequence (P30543 whole entry): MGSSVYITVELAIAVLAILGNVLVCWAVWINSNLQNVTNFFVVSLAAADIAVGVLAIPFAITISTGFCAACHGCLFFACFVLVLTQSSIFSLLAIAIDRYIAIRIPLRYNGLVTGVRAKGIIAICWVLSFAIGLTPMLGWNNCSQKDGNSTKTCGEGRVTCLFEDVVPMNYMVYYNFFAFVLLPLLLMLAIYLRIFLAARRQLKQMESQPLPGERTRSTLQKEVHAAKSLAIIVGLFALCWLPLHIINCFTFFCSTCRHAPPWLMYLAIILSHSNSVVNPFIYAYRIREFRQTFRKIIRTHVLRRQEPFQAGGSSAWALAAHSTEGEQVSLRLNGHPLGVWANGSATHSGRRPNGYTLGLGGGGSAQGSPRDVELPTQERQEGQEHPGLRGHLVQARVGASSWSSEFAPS
rat A2A receptor, sequence (P30543 whole entry): as above
Excerpt for adenosine receptors: For the avoidance of doubt, the EC50 value of a compound is defined herein as the concentration of the compound that provokes a receptor response halfway between the baseline receptor response and the maximum receptor response (as determined, for example, using a dose-response curve).
The EC50 value should be determined under standard conditions (balanced salt solutions buffered to pH 7.4). […] The EC50 could also be determined in vivo by measuring adenosine receptor mediated responses in a normal healthy animal, or even in a tissue perfused under normal conditions (i.e. oxygenated blood, or oxygenated isotonic media, also buffered at pH 7.4) in a normal healthy animal.

For the compound `COc1nc(N)c2ncn([C@@H]3O[C@H](CO)[C@@H](O)[C@H]3O)c2n1` [Spongosine, 2-methoxyadenosine], the “Blood pressure effect if the peak plasma concentration reaches the EC50 value” in [1] (last for hours) is on record as “profound reductions in blood pressure”. In [1] (rat, 0.6 mg/kg), the “Time plasma concentration remains above 2% of the EC50 value” was “more than 3 hours”. Further, the “Efficacy compared with indomethacin (3 mg/kg p.o.) in carrageenan induced thermal hyperalgesia” value in [2] is reported as “as effective as indomethacin”. In addition, the “Effect on carrageenan induced thermal hyperalgesia (difference in paw withdrawal latencies)” value in [2] (given at the same time as carrageenan (2%, 10 microlitres, right hind paw)) is on record as “inhibits carrageenan (CGN) induced thermal hyperalgesia”. The EC50 at adenosine receptors and at rat A2A receptor was 3 µM throughout. In addition, the “Biological activities in rats” value in the data set with rats is “muscle relaxant, hypothermic, hypotensive, and anti-inflammatory activity”. The “Effect on static allodynia (paw withdrawal threshold, PWT)” value in data set [3] (1.2 mg/kg p.o., in the presence and absence of naloxone (1 mg/kg s.c.)) is given as “inhibits static allodynia”; in [3] (p.o., Example 6), “inhibit static allodynia”. For the same compound, the “Effect on blood pressure” value in the data set with normal rats was “no significant effect”. Also, the “Effect on heart rate” value in the data set on normal rats is on record as “no significant effect”. In addition, in data set [4], the “Effect on thermal hyperalgesia caused by chronic constriction injury (difference in paw withdrawal latencies)” value is “inhibits thermal hyperalgesia”. Also, the “Efficacy compared with carbamazepine (CBZ, 100 mg/kg s.c.) in chronic constriction injury model” value in data set [4] is listed as “as, or more, effective than carbamazepine”. Besides, in [5], the “Effect on normal physiological nociception” value is “no effect”.

Consider `NCC1(CC(=O)O)CCCCC1` [gabapentin, reference compound], for which the “Effect on static allodynia (paw withdrawal threshold, PWT)” value in [3] (p.o., Example 6) was “inhibit static allodynia”.
